In patent publication US7816521B2, “1,2,4-benzotriazine-1,4-dioxides” (Auckland Uniservices Limited, priority 2004, dated 2010):
pIC50: −log10 of the molar value. Like-named read-outs stand apart in the source and are kept apart here.

How the values were obtained:
[1] = test system: human colon carcinoma cell line HT-29; experiment: Proliferation assay (IC50) under aerobic and hypoxic conditions; type: cell-based; details: for pIC50: Homo sapiens, HT-29, HT29, anoxic, 4 hr exposure; for HCR: hypoxic cytotoxicity ratio: aerobic IC50 / hypoxic IC50, HT29
Method: Compounds representative of the invention were evaluated under both aerobic and hypoxic conditions in a proliferation assay (IC50) using the human colon carcinoma cell line HT-29 as previously described [Hay et al, J. Med. Chem, 2003, 46, 169]. For each experiment, compounds were simultaneously tested under both oxic and hypoxic conditions and included TPZ as an independent internal control at the front and back of the assay. In all cases, a 8-methyl-5-nitroquinoline derivative was used as a second internal control to confirm that strict hypoxia was present during the experiment [Siim et al., Br. J. Cancer 1994, 70, 596].

HT29 cells = experiment: First order rate constant for anoxic metabolism in HT29 cells (kmet); type: in vitro ADME, human; details: rate constant of bioreductive metabolism, Table 1
Method: The apparent first order rate constants for anoxic metabolism in HT29 cells (kmet) of compounds representative of the invention were either: • 1. Estimated at the C10 experimentally by incubating stirred single cell suspensions (typically 10 ml at 2×10^6/ml of HT29 cells derived by trypsinisation of multicellular spheroids) in αMEM without serum in 20 ml bottles under flowing 5% CO2/N2 for 90 min, then introducing the compound using deoxygenated DMSO stock solutions to give a range of final drug concentrations. Samples (0.5 ml) were removed at intervals (typically 5 min, 30 min, 1,2,3 hr), washed by centrifugation, and plated to determine the number of clonogenic survivors as described by Hicks et al Cancer Res. 2003 63, 5970. The concentration of compound giving 1 log of kill at 1 hr (C10) was estimated by interpolation. Additional samples taken at the same times were centrifuged to remove cells, and supernatant stored at −80° C. for subsequent HPLC or LCMS analysis. The concentration of compound in the extracellular medium was plotted against time and the concentration closest to the C10 was used to estimate the first order rate constant. This was scaled to MCL cell density as described in Hicks et al, Cancer Res. 2003, 63, 5970 to obtain kmet. Cell viability was determined with a hemocytometer at the end of drug exposure by staining with 0.4% trypan blue to ensure metabolic viability was >75%. TPZ (30 μM) was included in each experiment as a reference compound. O2, in solution was measured using an OxyLite O2 luminescent fiber optic probe (Oxford Optronix Ltd, UK) to ensure severe hypoxia (<0.1 μM).

[2] = Plasma pharmacokinetics, AUC of free drug in CD-1 nude mice; type: in vivo, mouse; details: for AUC: CD-1 nude, mouse, ip
Method: The area under the concentration time curve for free drug (AUCf) in mouse plasma at the maximum tolerated dose (MTD) was determined either experimentally or by calculation.
The compound was formulated in a suitable vehicle (e.g. 0.9% saline, 5% DMSO in 0.9% saline) and administered intraperitoneally (i.p.) as single dose to CD-1 nude mice in a dose-escalating format using 1.33-fold dose increments.
The compound was administered to CD-1 nude mice in a suitable formulation as a single dose (i.p.) at the MTD. Blood samples were collected by retro-orbital sinus bleed or cardiac puncture after which the mouse was culled, or by serial bleeding from the tail vein. Typical time points were 15, 30, 60, and 120 min after administration. Blood was collected in a heparinised container and centrifuged to collect the plasma. The plasma concentration of the compound was determined by HPLC or LCMS using suitable sample preparation and analytical methods. Calibration was done with internal or external standards. The area under the concentration-time curve (AUC) for total (free plus bound) drug was calculated using the linear/log trapezoidal rule and extrapolation to infinity OR standard non-compartmental (PK) modelling.
Plasma protein binding was measured by the determination of the free fraction (FF) by equilibrium dialysis at 37° C. in 50% (v/v) mouse plasma in phosphate-buffered saline (pH 7.4), using a single drug concentration at or near the observed or extrapolated maximum concentration in plasma (Cmax). Compound concentrations after dialysis were determined by HPLC or LCMS.
AUCf for the compound administered as a single dose (i.p.) to CD-1 nude mice at the MTD can be estimated using the following regression equation: Log10(AUCf)=a+b×log Pneutral+c×log10(IC50)+d×log10(HCR)+e×log10(DMCL)+f×log10(kmet)+g×(log Pneutral)^2 where the coefficients are described in the following table: […]

[3] = test system: HT29 multicellular layers; type: in vitro ADME; details: human
Method: A: Diagram of a Millicell® CM culture insert used for growing MCLs on a porous, collagen-coated Teflon membrane. B: H&E-stained transverse section of an HT-29 MCL three days after initiating growth with 10^6 cells. The Teflon membrane is ca 30 μm thick. C: Diffusion apparatus for measurement of transport through MCLs. D: Diffusion of TPZ (100 μM) through well oxygenated (open circles) and […] poorly oxygenated (filled circles) HT29 MCLs of equivalent thickness (141±5 μm). Concentrations are normalized to the initial concentration in the donor compartment (Co). The Lines are fits to a reaction-diffusion model. Also shown is the diffusion of compound #20 through a well oxygenated MCL of a similar thickness illustrating the effect of raising the diffusion coefficient from 4×10^−7 cm^2s^−1 to 1.4×10^−6 cm^2s^−1.
The diffusion coefficients in HT29 MCL (DMCL) of compounds representative of the invention were determined either by: • 1. Measurement of drug diffusion in HT29 MCL (grown in culture inserts and seeded at 1×10^6 cells per insert and grown for 3-4 days) in a 2 chamber diffusion apparatus containing culture medium with measurement from both the donor and receiver compartments and gassing at ≧20% O2 to suppress bioreductive metabolism as described in Hicks et al (Cancer Res. 2003, 63, 5970-5977). Samples of medium are taken at intervals, drug concentrations determined by HPLC or LCMS and the concentration-time profile was fitted to Fick's second law of diffusion and the differential equation was solved numerically to obtain the estimate of DMCL.
OR • 2. Calculated from the logistic regression equation
where • a. Log P7.4 is the base 10 logarithm of the octanol-water partition coefficient of the compound at pH 7.4 measured or calculated using the techniques described below • b. HD is the number of hydrogen bond donors (which is the sum of all NH— and OH-groups) • c. HA is the number of hydrogen bond acceptors (which is the sum of all N— and O-atoms) • d. Mr is the molecular weight of the non-ionised drug and a, g, d, a, x0, e, h, and b are regression coefficients as outlined in the table.
Values of the coefficient g are cell line dependent; this value has been determined as 0.3051 (SE 0.0427, CV 13.99%, p<0.001) for SiHa MCLs, and is set at zero for HT29 MCLs.

[4] = AUC of free drug, single i.p. dose at maximum tolerated dose, mice, Table 1
[5] = plasma, mouse plasma, free drug, at the MTD or 75% of the MTD, Table 2, read-out: AUC
[6] = plasma, AUC of free drug, single i.p. dose at maximum tolerated dose, mice, Table 1, read-out: AUCf

Row | Structure (SMILES) | pIC50 [1] | HCR [1] | kmet (HT29 cells) [min⁻¹] | AUCf [2, 4] [µM·h] | AUC [2, 5] [µM·h] | DMCL [3] | AUC [2, 6] [µM·h] | AUC ([2]; in vivo, AUC) [µM·h] | AUC ([2]; in vivo, AUCf) [µM·h] | diffusion coefficient ([3]; 100 μM) | reduction in diffusion in poorly oxygenated versus well oxygenated HT29 MCLs ([3]; 100 μM) [fold]
1 | Cc1ccc2c(c1)[n+]([O-])c(N)n[n+]2[O-] [B, 6-Methyl-1,2,4-benzotriazin-3-amine 1,4-Dioxide] | 4.89 | 35.8 | 0.20 | 188.7 | 216 | 5.43 × 10^−7 cm^2s^−1 |  |  |  |  | 
2 | CCc1n[n+]([O-])c2ccccc2[n+]1[O-] [I] | 5.17 | 54.2 | 1.91 |  | 139 | 2.61 × 10^−6 cm^2s^−1 | 141 |  |  |  | 
3 | Cc1ccc2c(c1)[n+]([O-])c(NCCN(C)C)n[n+]2[O-] [H, N^1,N^1-Dimethyl-N^2-(6-methyl-1,4-dioxido-1,2,4-benzotriazin-3-yl)-1,2-ethanediamine] | 5.73 | 159.0 | 1.52 | 69.0 | 67.8 | 3.99 × 10^−7 cm^2s^−1 |  |  |  |  | 
4 | Nc1n[n+]([O-])c2ccccc2[n+]1[O-] [A, tirapazamine, reference compound] |  |  | 0.60 |  |  | 3.97 × 10^−7 cm^2s^−1 |  | 148 | 148 | 4×10^−7 cm^2s^−1 | 2
5 | Nc1n[n+]([O-])c2c(Cl)cccc2[n+]1[O-] [D, 8-Chloro-1,2,4-benzotriazin-3-amine 1,4-Dioxide] | 6.26 | 13.6 | 10.03 |  | 0.7 | 6.69 × 10^−7 cm^2s^−1 | 0.8 |  |  |  | 
6 | COCCc1n[n+]([O-])c2ccccc2[n+]1[O-] [J] | 5.46 | 49.4 | 2.01 |  | 83.5 | 2.09 × 10^−6 cm^2s^−1 | 79 |  |  |  | 
7 | CN(CCCNC(=O)c1cccc2ccc(-c3ccncc3)nc12)CCCNc1n[n+]([O-])c2ccccc2[n+]1[O-] [M] | 6.90 | 119.0 | 9.13 |  | 1.2 | 9.80 × 10^−8 cm^2s^−1 | 0.9 |  |  |  | 
8 | CN(CCCNC(=O)c1cccc2cc3ccccc3nc12)CCCNc1n[n+]([O-])c2ccccc2[n+]1[O-] [L] | 7.30 | 154.0 | 9.18 |  | 3.3 | 3.82 × 10^−7 cm^2s^−1 | 3.6 |  |  |  | 
9 | Cc1ccc2c(c1)[n+]([O-])nc(NCCN(C)C)[n+]2[O-] [F, 7-Methyl-N-[2-(dimethylamino)ethyl]-1,2,4-benzotriazin-3-amine 1,4-Dioxide] | 5.97 | 34.3 | 2.54 |  | 3.9 | 5.09 × 10^−7 cm^2s^−1 | 3.5 |  |  |  | 
10 | Cc1ccc2c(c1)[n+]([O-])c(NCCCN(C)CCCNC(=O)c1cccc3cc4ccccc4nc13)n[n+]2[O-] [N] | 6.65 | 134.0 | 4.74 |  | 1.6 | 1.05 × 10^−7 cm^2s^−1 | 1.3 |  |  |  | 
11 | CS(=O)(=O)c1ccc2c(c1)[n+]([O-])nc(N)[n+]2[O-] [E, 7-(Methylsulfonyl)-1,2,4-benzotriazin-3-amine 1,4-Dioxide] | 5.00 | 12.0 | 1.00 |  | 15.6 | 2.13 × 10^−7 cm^2s^−1 | 15.6 |  |  |  | 
12 | Nc1n[n+]([O-])c2cc(Cl)ccc2[n+]1[O-] [C, 7-Chloro-1,2,4-benzotriazin-3-amine 1,4-Dioxide] | 6.14 | 28.5 | 3.92 |  | 2.7 | 8.70 × 10^−7 cm^2s^−1 | 1.9 |  |  |  | 
13 | CCCN(CCC)CCNc1n[n+]([O-])c2ccccc2[n+]1[O-] [G] | 5.78 | 81.6 | 4.89 | 7.2 | 7.1 | 1.71 × 10^−6 cm^2s^−1 |  |  |  |  | 
14 | [O-][n+]1nc(NCCCCCCNc2c3ccccc3nc3ccccc23)[n+]([O-])c2ccccc21 [K] | 7.60 | 31.8 | 18.33 |  |  | 6.17 × 10^−7 cm^2s^−1 | 0.042 |  |  |  | 
